The text below walks through data of paper PMC2653189 (PLoS ONE, 2009).

Common to all, as to experiment: Breast cancer cell line apoptosis assay (nucleosome ELISA)
Holding throughout (assay type): cell-based
Holding throughout (conditions): Homo sapiens, 24 hr, read-out: EC50 apoptosis induction
On the technique in general: In an ELISA, binding on a coated surface is turned into a signal by an enzyme label.

The subject of one experiment is MCF7. Here is the method:
(§1) Human breast carcinoma cell lines MDA-MB-468, MDA-MB-231, MBA-MD-435 and MCF7 were kindly provided by Dr. Powel H. Brown (Breast Cancer Center, Baylor College of Medicine). Breast cancer cell line, MDA-MB-453 was kindly provided by Dr. Shou Jiang (Breast Cancer Center, Baylor College of Medicine). All cell lines were grown in DMEM medium supplemented with 10% fetal bovine serum (FBS), 25,000 units penicillin G, 25,000 µg streptomycin, and 131.4 mg L-Glutamine and cultured in the incubator under the condition of 95% air, 5% CO2 at 37°C [33]. Cells were seeded at 2,500 cells/cm^2 into 12-well plates. At 80% confluency, cells were washed with PBS and supplemented with fresh medium containing compound or the topoisomerase I-inhibitor, camptothecin, at 0, 0.1, 0.3, 1, 3, 10, 30, 100, 300 µM. At 24 hours, treatment was terminated by removing the medium from each well. Cells were lysed with cell lysis buffer (600 µl for 30 minutes at 25°C). Cell lysate (200 µl) was centrifuged at 200 g for 10 minutes and 20 µl of each supernatant was assayed for nucleosomes using the Cell Death Detection ELISA (Roche Applied Science) as described by the manufacturer. The percent maximum nucleosome level was calculated by dividing the nucleosome level by the maximum nucleosome level achieved in the assay and multiplying by 100. This value was plotted as a function of the log compound concentration and the best-fitting curve and EC50 value determined using 4-Parameter Logistic Model/Dose Response/XLfit 4.2, IDBS software.
(§2) Figure 5 Apoptosis induction of breast cancer cell lines by compounds; selective apoptosis of cell lines that are Stat3 dependent. MDA-MB-468 (panel A), MDA-MB-231 (panel B), MDA-MB-435 (panel C), MCF7 (panel D) and MDA-MB-453 (panel E) were seeded in 12-well plates, grown overnight then treated with the indicated compound for 24 hr. Cells were centrifuged and the supernatants assayed for nucleosome levels by ELISA. The percent maximum nucleosome level was calculated (nucleosome level ÷ maximum nucleosome level achieved in the assay ×100) and plotted as a function of the log compound concentration. The best-fitting curve was determined using 4-ParameterLogistic Model/Dose Response One Site/XLfit 4.2, IDBS software and was used to determine the EC50 value (Table 3).

For a further experiment, the system named is MDA-MB-231. Here is the method:
as §1, §2

A further experiment has as its system MDA-MB-435. On the procedure:
as §1, §2

The next experiment has as its system MDA-MB-453. Here is the method: as §1, §2
For the next experiment, the system named is MDA-MB-468. On the procedure:
as §1, §2

pEC50: −log10 of the molar value.

As for `CC[C@@]1(O)C(=O)OCc2c1cc1n(c2=O)Cc2cc3ccccc3nc2-1` [CAM, camptothecin, reference compound], the pEC50 in the experiment with MCF7 is 6.89; in the experiment on MDA-MB-231, 5.79; in the experiment on MDA-MB-435, 5.79; in the experiment on MDA-MB-453 it was 6.03; in the experiment on MDA-MB-468, 6.13.

The term pEC50 denotes the EC50 on a negative log10 scale, so that one unit is a factor of ten.
